Assay [1] relates to IL4-induced phospho STAT6 formation in Ramos B lymphocytes. Description: Inhibition of IL4-induced phospho STAT6 formation in Ramos B lymphocytes (flow cytometry). It is filed as cell-based, human. To be noted: Homo sapiens; for inhibition at 0.2 µM: 200 nM compound, read-out: % Inhibition of IL-4 Induced STAT6 Phosphorylation 200 nM; for inhibition at 1 µM: 1 μM compound, read-out: % Inhibition of IL-4 Induced STAT6 Phosphorylation 1 μM. The source says:
Similar types of assays can be used to assess JAK inhibitory activity and to determine the degree of selectivity of the particular compound as compared to syk. One means of assaying for such inhibition is detection of the effect of the compounds of the present invention on the upregulation of downstream gene products. In the Ramos/IL4 assay, B-cells are stimulated with the cytokine Interleukin-4 (IL-4) leading to the activation of the JAK/Stat pathway through phosphorylation of the JAK family kinases, JAK1 and JAK3, which in turn phosphorylate and activate the transcription factor Stat-6. […] To study the effect of inhibitors (e.g., the 2,4-substituted pyrimindinediamine compounds described herein) on the JAK1 and JAK3, human Ramos B-cells are stimulated with human IL-4. 10′ post-stimulation, cells are subjected to intracellular flow cytometry to measure the extent of STAT-6 phosphorylation. 20 to 24 hours post-stimulation, cells are stained for upregulation of CD23 and analyzed using flow cytometry.
Inhibition of IL4-induced phospho STAT6 formation was measured by pre-incubating 0.5 million Ramos B lymphocytes (ATCC) with 5 μl compound or DMSO vehicle for 1 hour at 37° C./5% CO2. Cells were activated by addition of 1 ng/ml [f]IL4 (R & D Research Systems) for 10 min at 37° C./5% CO2 and then fixed by addition of 1.6% [f]PFA (Electron Microscopy Services). Following a PBS wash step and permaeabilization with 100% methanol, cells were incubated with ALEXA-conjugated anti-phosphoSTAT6 (Y641) antibody (BD 612600). The extent of cell associated-fluorescence was determined by flow cytomentry and data expressed as mean fluorescent intensity. The extent of inhibition of the IL4-induced signal was then calculated.
(In general: In flow cytometry, cells or beads pass a laser one at a time.)

A further assay has as its target T1, TYK2 (Homo sapiens, UniProt P29597).
T1 construct: 5 μl of catalytic domain recombinant Kinase enzyme+Tyr peptide substrate (Invitrogen, Calif.); purchased Invitrogen
T1 sequence (P29597 897-1176 limits assumed): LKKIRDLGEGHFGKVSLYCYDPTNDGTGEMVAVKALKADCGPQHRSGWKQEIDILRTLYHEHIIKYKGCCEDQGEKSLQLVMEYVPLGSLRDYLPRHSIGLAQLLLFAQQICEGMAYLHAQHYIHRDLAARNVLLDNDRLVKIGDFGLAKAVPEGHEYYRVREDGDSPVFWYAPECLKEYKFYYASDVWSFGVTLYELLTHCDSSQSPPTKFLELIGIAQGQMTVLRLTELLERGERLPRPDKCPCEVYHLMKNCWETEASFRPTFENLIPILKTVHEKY
The experiment in a line: Z'-LYTE kinase assay, TYK2 tyrosine phosphorylation activity. The format is biochemical. In outline:
(§1)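 Inhibition is expressed as substrate phosphorylation relative to inhibitor-free wells, fitted with a 4-parameter logistic model for IC50. Reactions contain catalytic-domain kinase, Tyr6 peptide and ATP, run 1 h at room temperature. Development protease is added for 1 h before fluorescence readout.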

A further assay addresses T2, JAK3 (Homo sapiens, UniProt P52333).
T2 construct: 5 μl of catalytic domain recombinant Kinase enzyme+Tyr peptide substrate (Invitrogen, Calif.); purchased Invitrogen
The experiment in a line: Z'-LYTE kinase assay, JAK3 tyrosine phosphorylation activity. The format is biochemical. In outline: as §1

In another assay the target is T3, JAK1 (Homo sapiens, UniProt P23458).
T3 construct: 5 μl of catalytic domain recombinant Kinase enzyme+Tyr peptide substrate (Invitrogen, Calif.); purchased Invitrogen
T3 sequence (P23458 875-1153 limits assumed): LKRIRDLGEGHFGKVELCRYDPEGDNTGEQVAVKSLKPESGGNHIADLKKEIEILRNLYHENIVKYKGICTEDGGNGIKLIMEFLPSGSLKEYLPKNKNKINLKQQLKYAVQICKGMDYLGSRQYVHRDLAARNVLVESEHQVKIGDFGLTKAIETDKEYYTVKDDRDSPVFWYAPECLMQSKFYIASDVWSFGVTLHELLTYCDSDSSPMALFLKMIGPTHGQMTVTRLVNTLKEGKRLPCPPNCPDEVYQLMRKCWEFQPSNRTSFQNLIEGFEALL
Description: Z'-LYTE kinase assay, JAK1 tyrosine phosphorylation activity. The format is biochemical. To be noted: read-out: JAK 1 IC50. In outline: as §1

A further assay deals with T4, JAK2 (Homo sapiens, UniProt O60674).
T4 construct: 5 μl of catalytic domain recombinant Kinase enzyme+Tyr peptide substrate (Invitrogen, Calif.); purchased Invitrogen
T4 sequence (O60674 849-1124 limits assumed): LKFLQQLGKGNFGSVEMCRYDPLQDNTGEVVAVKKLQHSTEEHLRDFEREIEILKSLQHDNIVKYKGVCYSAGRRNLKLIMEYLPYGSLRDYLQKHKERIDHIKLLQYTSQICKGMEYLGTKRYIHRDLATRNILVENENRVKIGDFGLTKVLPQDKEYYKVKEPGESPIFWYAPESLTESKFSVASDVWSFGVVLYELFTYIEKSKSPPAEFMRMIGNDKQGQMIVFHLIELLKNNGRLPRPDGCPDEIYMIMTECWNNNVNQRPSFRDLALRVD
Description: Z'-LYTE kinase assay, JAK2 tyrosine phosphorylation activity. It is filed as biochemical. In outline:
as §1

T2 sequence (P52333 822-1111 limits assumed): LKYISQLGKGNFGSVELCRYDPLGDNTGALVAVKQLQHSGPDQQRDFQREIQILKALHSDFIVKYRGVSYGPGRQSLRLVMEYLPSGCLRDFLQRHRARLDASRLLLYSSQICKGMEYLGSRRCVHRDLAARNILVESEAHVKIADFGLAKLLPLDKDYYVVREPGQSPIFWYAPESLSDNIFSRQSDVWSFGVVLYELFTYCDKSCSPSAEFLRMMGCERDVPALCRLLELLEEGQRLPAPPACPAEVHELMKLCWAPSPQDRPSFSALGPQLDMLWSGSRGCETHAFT

As for `C[C@@H](Nc1nc(Nc2ccc(Cl)c(NC(=O)C3CC3)c2)ncc1C(N)=O)c1ccccc1` [Example 110, (R)-2-(4-chloro-3-(cyclopropanecarboxamido)phenylamino)-4-(1-phenylethylamino)pyrimidine-5-carboxamide], in assay [1], the inhibition (in general, the drop in the measured response relative to a control, in per cent) at 0.2 µM is 48.3%. The inhibition at 1 µM in assay [1] was determined as 97.7%. In addition, the IC50 – broadly, the concentration that inhibits the measured activity by half – against TYK2 was 100 to 1000 nM; against JAK3 it was 10 to 100 nM; at JAK1, 100 to 1000 nM; against JAK2, 100 to 1000 nM.

Turning to `CC(=O)Nc1cc(Nc2ncc(C(N)=O)c(NCc3ccccc3)n2)ccc1OCCN1CCCC1` [Example 244, 2-(3-acetamido-4-(2-(pyrrolidin-1-yl)ethoxy)phenylamino)-4-(benzylamino)pyrimidine-5-carboxamide], in assay [1], the inhibition at 0.2 µM stood at 51.3%. In addition, the inhibition at 1 µM in assay [1] stood at 94.7%. For the same compound, the IC50 on TYK2 is 1 to 10 nM; against JAK3 it was below 1 nM; on JAK1, 10 to 100 nM; at JAK2, 10 to 100 nM.

Take `CCCCNc1nc(Nc2cccc(NC(=O)N3CCCC3)c2)ncc1C(N)=O` [Example 135, 4-(butylamino)-2-(3-(pyrrolidine-1-carboxamido)phenylamino)pyrimidine-5-carboxamide]: the inhibition at 0.2 µM in assay [1] is 42.3%. The inhibition at 1 µM in assay [1] was 89.7%. Besides, the IC50 against TYK2 fell in the range of 1 to 10 nM; against JAK3 it was 1 to 10 nM; on JAK1 it was 10 to 100 nM; against JAK2 it was 10 to 100 nM.

With `CC(C)[C@H](C)Nc1nc(Nc2ccc(Cl)c(NC(=O)N3CCCC3)c2)ncc1C(N)=O` [Example 248, (S)-2-(4-chloro-3-(pyrrolidine-1-carboxamido)phenylamino)-4-(3-methylbutan-2-ylamino)pyrimidine-5-carboxamide], the inhibition at 0.2 µM in assay [1] is 61.3%. For the same compound, the inhibition at 1 µM in assay [1] amounted to 94.7%. Further, the IC50 against TYK2 was 10 to 100 nM; on JAK3 it was 10 to 100 nM; at JAK1, 10 to 100 nM; against JAK2, above 1000 nM.

As for `NC(=O)c1cnc(Nc2cccc(NC(=O)[C@H]3CCCO3)c2)nc1NCc1ccccc1` [Example 202, (R)-4-(benzylamino)-2-(3-(tetrahydrofuran-2-carboxamido)phenylamino)pyrimidine-5-carboxamide], the inhibition at 0.2 µM in assay [1] was found to be 23.5%. For the same compound, the inhibition at 1 µM in assay [1] was 48.5%. In addition, the half-inhibitory concentration (IC50) fell in the range of 1 to 10 nM at TYK2, 1 to 10 nM on JAK3, 10 to 100 nM on JAK1 and 10 to 100 nM at JAK2.

On to `COC[C@@H]1CCCN1C(=O)Nc1cccc(Nc2ncc(C(N)=O)c(NCc3ccccc3)n2)c1` [Example 140, (S)-4-(benzylamino)-2-(3-(2-(methoxymethyl)pyrrolidine-1-carboxamido)phenylamino)pyrimidine-5-carboxamide], for which, in assay [1], the inhibition at 0.2 µM worked out at 21.7%. For the same compound, in assay [1], the inhibition at 1 µM was 69%. Moreover, the IC50 on TYK2 lay within 1 to 10 nM; on JAK3 it was 1 to 10 nM; on JAK1 it was 10 to 100 nM; against JAK2 it was 10 to 100 nM.

For `NC(=O)c1cnc(Nc2ccc(Cl)c(NC(=O)N3CCCC3)c2)nc1NCc1cccc(F)c1` [Example 177, 2-(4-chloro-3-(pyrrolidine-1-carboxamido)phenylamino)-4-(3-fluorobenzylamino)pyrimidine-5-carboxamide], the inhibition at 0.2 µM in assay [1] was 2.3%. Further, the inhibition at 1 µM in assay [1] was determined as 7.3%. Also, the IC50 against TYK2 is 100 to 1000 nM; at JAK3 it was 1 to 10 nM; at JAK1 it was above 1000 nM; on JAK2, 100 to 1000 nM.

Consider `CC(=O)Nc1cc(Nc2ncc(C(N)=O)c(NCc3ccccc3)n2)ccc1C` [Example 155, 2-(3-acetamido-4-methylphenylamino)-4-(benzylamino)pyrimidine-5-carboxamide], for which, in assay [1], the inhibition at 0.2 µM was determined as 71.7%. In assay [1], the inhibition at 1 µM came to 88%. Besides, the IC50 lay within 1 to 10 nM at TYK2, 1 to 10 nM against JAK3, 10 to 100 nM on JAK1 and 10 to 100 nM at JAK2.

As for `CNC(=O)Nc1cc(Nc2ncc(C(N)=O)c(NCc3ccccc3)n2)ccc1OC` [Example 164, 4-(benzylamino)-2-(4-methoxy-3-(3-methylureido)phenylamino)pyrimidine-5-carboxamide], in assay [1], the inhibition at 0.2 µM stood at 34.7%. Moreover, in assay [1], the inhibition at 1 µM stood at 68.7%. Besides, the IC50 on TYK2 fell in the range of 1 to 10 nM; at JAK3, 1 to 10 nM; at JAK1, 10 to 100 nM; at JAK2, 10 to 100 nM.

Consider `COC[C@H]1CCCN1C(=O)Nc1cccc(Nc2ncc(C(N)=O)c(N[C@H](C)c3ccccc3)n2)c1` [Example 149, 2-(3-((R)-2-(methoxymethyl)pyrrolidine-1-carboxamido)phenylamino)-4-((R)-1-phenylethylamino)pyrimidine-5-carboxamide], for which the inhibition at 0.2 µM in assay [1] amounted to 6.7%. The inhibition at 1 µM in assay [1] was 44%. Further, the IC50 was in the range of 10 to 100 nM on TYK2, 1 to 10 nM against JAK3, 100 to 1000 nM at JAK1 and 10 to 100 nM on JAK2.

For `NC(=O)c1cnc(Nc2cccc(NC(=O)N3CCCC3)c2)nc1NCc1cccc(F)c1` [Example 179, 4-(3-fluorobenzylamino)-2-(3-(pyrrolidine-1-carboxamido)phenylamino)pyrimidine-5-carboxamide], in assay [1], the inhibition at 0.2 µM turned out to be 11.3%. Besides, in assay [1], the inhibition at 1 µM was 10.7%. The IC50 lay within 10 to 100 nM against TYK2, 1 to 10 nM on JAK3, 10 to 100 nM at JAK1 and 10 to 100 nM on JAK2.

For `NC(=O)c1cnc(Nc2ccc(Cl)c(NC(=O)NC3CC3)c2)nc1NCc1ccccc1` [Example 154, 4-(benzylamino)-2-(4-chloro-3-(3-cyclopropylureido)phenylamino)pyrimidine-5-carboxamide], the inhibition at 0.2 µM in assay [1] was determined as 11.7%. In addition, the inhibition at 1 µM in assay [1] was determined as 33.7%. Moreover, the IC50 is 100 to 1000 nM against TYK2, 10 to 100 nM on JAK3, above 1000 nM at JAK1 and above 1000 nM against JAK2.

For `NC(=O)c1cnc(Nc2cccc(NC(=O)N3CCCC3)c2)nc1NCc1ccccc1F` [Example 168, 4-(2-fluorobenzylamino)-2-(3-(pyrrolidine-1-carboxamido)phenylamino)pyrimidine-5-carboxamide], the inhibition at 0.2 µM in assay [1] came to 54%. For the same compound, the inhibition at 1 µM in assay [1] was found to be 92%. For the same compound, the IC50 against TYK2 fell in the range of 1 to 10 nM; against JAK3, 1 to 10 nM; at JAK1, 10 to 100 nM; against JAK2, 10 to 100 nM.

In the case of `NC(=O)c1cnc(Nc2ccc(Cl)c(NC(=O)N3CCCC3)c2)nc1NCc1ccccc1F` [Example 170, 2-(4-chloro-3-(pyrrolidine-1-carboxamido)phenylamino)-4-(2-fluorobenzylamino)pyrimidine-5-carboxamide], the inhibition at 0.2 µM in assay [1] was 5.7%. In addition, in assay [1], the inhibition at 1 µM is 53.7%. Moreover, the IC50 was 10 to 100 nM against TYK2, 1 to 10 nM against JAK3, above 1000 nM at JAK1 and above 1000 nM at JAK2.

In the case of `NC(=O)c1cnc(Nc2cccc(NC(=O)C3CCOC3)c2)nc1NCc1ccccc1` (stereo not drawn) [Example 203, 4-(benzylamino)-2-(3-(tetrahydrofuran-3-carboxamido)phenylamino)pyrimidine-5-carboxamide], the inhibition at 0.2 µM in assay [1] worked out at 80%. Also, the inhibition at 1 µM in assay [1] amounted to 106%. Further, the IC50 is 1 to 10 nM against TYK2, 1 to 10 nM against JAK3, 10 to 100 nM at JAK1 and 10 to 100 nM against JAK2.

With `NC(=O)c1cnc(Nc2cccc(NC(=O)[C@@H]3CCCO3)c2)nc1NCc1cccc(F)c1` [Example 208, (S)-4-(3-fluorobenzylamino)-2-(3-(tetrahydrofuran-2-carboxamido)phenylamino)pyrimidine-5-carboxamide], the inhibition at 0.2 µM in assay [1] is 22.7%. In addition, the inhibition at 1 µM in assay [1] stood at 67.7%. Also, the IC50 lay in the range of 10 to 100 nM against TYK2, 1 to 10 nM against JAK3, 10 to 100 nM at JAK1 and 10 to 100 nM on JAK2.

The values are drawn from patent US8853230B2, “Inhibitors of JAK” (Portola Pharmaceuticals, Inc., priority 2009, dated 2014).
